PMC12362618, “Development of the First Small-Molecule Inhibitor Targeting Oncostatin M for Treatment of Breast Cancer” (Journal of Medicinal Chemistry, 2025)
Values joined by “and” are separate entries in the source; they are usually repeats but may differ in a detail not shown here. Equal values may be shown once. “Also recorded” adds a separate entry of the source.

Tests used:
[1] = molecular target: T1, OSM (Homo sapiens, UniProt P13725); assay: Fluorescence quenching assay of SMI binding to OSM; conditions: average of three independent replicates, errors at 95% confidence level, read-out: KD (OSM-SMI dissociation constant)
T1 sequence (P13725 26-252): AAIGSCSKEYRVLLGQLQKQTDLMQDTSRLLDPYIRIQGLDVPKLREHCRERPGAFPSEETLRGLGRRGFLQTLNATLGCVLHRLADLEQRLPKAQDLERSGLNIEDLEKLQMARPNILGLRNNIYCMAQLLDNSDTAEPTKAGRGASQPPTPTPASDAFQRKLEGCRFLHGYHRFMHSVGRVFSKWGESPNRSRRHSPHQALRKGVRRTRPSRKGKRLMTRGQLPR
Procedure: To perform fluorescence quenching assays, 2 mL of 1 μM OSM solution in polymethylmethacrylate cuvettes was prepared by dilution of a concentrated stock solution of recombinant OSM with buffer solution (100 mM sodium chloride, 50 mM sodium phosphate, 50 mM freshly added DTT, pH = 6.6). Cuvettes were titrated with 5 μL increments of a 1 mM small molecule stock solution in DMSO, with a cuvette titrated with an equivalent volume of DMSO as a control. […] In cases where little to no significant quenching was observed, the titration was supplemented with 2.5 μL increments of a 10 mM small molecule stock solution to increase the concentration delivered. The fluorescence intensity measurements were obtained on a Cary Eclipse spectrofluorometer equipped with a Xenon arc lamp. Fluorescence intensities were measured by exciting at 280 nm (4 nm slit width) and recording the emission from 345 to 355 nm with a photomultiplier tube voltage of 700 V, unless otherwise noted. Each titration point was normalized to OSM’s native fluorescence intensity, corrected by adding the decrease in fluorescence intensity caused by dilution with DMSO, and the average value of the three replicates for each point was plotted against concentration of small molecule delivered and fit to a modified Stern–Volmer function as described by Charlier and Plapp. Binding affinity (K D) values were obtained […] from the fitting routine. All curve-fitting analysis was performed in GraphPad Prism 8.0.

[2] = test system: OSM-induced pSTAT3 in T47D human breast cancer cells; assay: pSTAT3 ELISA in T47D cells treated with OSM ± SMI; type: cell-based; conditions: T47D; SMI 10 μM + OSM 10 ng/mL, 30 min; ELISA; relative to +OSM, no-treatment blank subtracted
Procedure: To test the effect of SMIs in vitro, each SMI was incubated with OSM for a period of 1 h at 37 °C, and T47D and MDA-MB-231 human breast cancer cell lines were subsequently treated with OSM (10 ng/mL) and/or SMI-10 (10 μM) analogs for 30 min and measured for pSTAT3 levels via ELISA. The results of these assays are presented graphically in Figure and, for T47D cells, in Table as a percentage of reduction from +OSM alone. For phospho-STAT3 (pSTAT3) ELISAs, T47D MDA-MB-231, and MCF-7 cells were seeded in 12- or 24-well plates at 70–75% confluency and allowed to adhere overnight, after which cells were serum-starved with serum-free RPMI-1640 for 4 h. SMIs (10 μM in DMSO or serially diluted to specified concentrations from a 100 mM stock in DMSO) and human recombinant OSM (10 ng/mL; PeproTech; #300–10T-10UG) were incubated in serum-free RPMI-1640 medium for 1 h. After incubation, the SMI-10 analogs or SMI-10B13 and OSM were added to the serum-starved cells for 30 min. Immediately afterward, the cells were lysed using 1x PathScan Sandwich ELISA Lysis Buffer (Cell Signaling Technology; #7018S), collected, and stored at −20 °C. Lysates were analyzed for pSTAT3 levels using either the PathScan Phospho-STAT3 (Tyr705) Sandwich ELISA Antibody Pair kit (Cell Signaling Technology; #7146) or Human/Mouse Phospho-STAT3 (Y705) DuoSet IC ELISA (R&D Systems; DYC4607B), according to manufacture’s protocol. pSTAT3 expression was measured with absorbance at 450 nm and quantified by comparison relative to OSM-induced pSTAT3 levels. To calculate an IC50 for SMI-10B13, a standard curve was generated as described in the DuoSet IC ELISA datasheet to determine the concentration of pSTAT3.

[3] = test system: OSM-mediated signaling (pSTAT3, pAKT, pJNK, pERK) in T47D cells; assay: Immunoblot of OSM-mediated signaling in T47D cells; type: cell-based, human; conditions: SMI 10 μM, OSM 10 ng/mL, 30 min
Procedure: For immunoblot analysis, T47D breast cancer cells were treated and collected in the same manner as described above for the ELISA preparation. After lysate collection, samples were run on a 10% SDS-PAGE gel and transferred to a nitrocellulose membrane via semidry transfer. Blots were rinsed with DI H2O and allowed to completely dry at room temperature before blocking with LiCor Intercept PBS Blocking Buffer (LiCor, Lincoln, NE; Cat# 927-90001) for 1 h. After blocking, primary antibodies (1:1000) suspended in blocking buffer supplemented with 0.1% Tween were added, shaken at room temperature for 1 h, and stored at 4 °C overnight. Membranes were then washed 6 times for 5 minutes each with 1X PBS supplemented with 0.5% Tween while shaking at room temperature, and secondary antibodies (1:15,000) were applied and incubated for 1 h. Afterward, membranes were washed as previously described above and imaged at 700 nm using the LiCor Odyssey CLx Imaging System. Quantification of immunoblots was performed using the LiCor Image Studio software, normalizing to β-Actin, and calculating relative fold change compared to nontreated samples. Antibodies used included phospho-STAT3 (Y705) (Cell Signaling Technology, Danvers, MA; cat. no. 9145), phospho-AKT (S473) (Cell Signaling Technology, Danvers, MA; cat. no. 4060), phospho-JNK ([…]/[…]) (Cell Signaling Technology, Danvers, MA; cat. no. 4668), phospho-ERK (T202/Y204) (Cell Signaling Technology, Danvers, MA; cat. no. 9101), β-Actin (Cell Signaling Technology; cat. no. 3700), and donkey antirabbit IRDye 800CW (LiCor, Lincoln, NE; Cat# 925-32213).

Row | Structure (SMILES) | Kd [1] | Relative pSTAT3 Levels (Table 1, SMI-10A-10J) [2] [%] | Relative pSTAT3 Levels (Table 2, SMI-10B analogs) [2] [%] | Inhibition of OSM-mediated signaling cascades by immunoblot (words) [3] | Inhibition of OSM-mediated signaling cascades by immunoblot (words) ([3]; listed as 10B8)
1 | COC(=O)c1cc(-c2ccc3c(c2)OCO3)c(-c2ccc3c(c2)OCO3)o1 [SMI-10A, Methyl 4,5-Bis(benzo[d][1,3]dioxol-5-yl)furan-2-carboxylate] | 29.6 ± 5.6 µM | 84.7 |  |  | 
2 | COc1ccc(-c2cc(/C=C/C(=O)O)oc2-c2ccc(OC)c(OC)c2)cc1OC [SMI-10B1, (E)-3-(4,5-Bis(3,4-dimethoxyphenyl)furan-2-yl)acrylic Acid] | 18.4 ± 1.3 µM |  | 62.35 |  | 
3 | COc1ccc(-c2cc(/C=C/C(=O)O)oc2-c2ccc(OC)c(O)c2)cc1O [SMI-10B2, (E)-3-(4,5-Bis(3-hydroxy-4-methoxyphenyl)furan-2-yl)acrylic Acid] | 17.5 ± 1.2 µM |  | 56.66 |  | 
4 | COc1cc(-c2cc(/C=C/C(=O)O)oc2-c2ccc(O)c(OC)c2)ccc1O [SMI-10B3, (E)-3-(4,5-Bis(4-hydroxy-3-methoxyphenyl)furan-2-yl)acrylic Acid] | 18.5 ± 1.7 µM |  | 67.12 |  | 
5 | O=C(O)/C=C/c1cc(-c2ccc3c(c2)OCO3)c(-c2ccc3c(c2)OCO3)s1 [SMI-10B4, (E)-3-(4,5-Bis(benzo[d][1,3]dioxol-5-yl)thiophen-2-yl)acrylic Acid] | 21.2 ± 1.8 µM |  | 17.98 |  | 
6 | O=C(O)/C=C/c1cc(-c2ccc3c(c2)OCO3)c(-c2ccc3c(c2)OCO3)[nH]1 [SMI-10B5, (E)-3-(4,5-Bis(benzo[d][1,3]dioxol-5-yl)-1H-pyrrol-2-yl)acrylic Acid] | 9.2 ± 1.2 µM |  | 19.89 |  | 
7 | Cn1c(/C=C/C(=O)O)cc(-c2ccc3c(c2)OCO3)c1-c1ccc2c(c1)OCO2 [SMI-10B6, (E)-3-(4,5-Bis(benzo[d][1,3]dioxol-5-yl)-1-methyl-1H-pyrrol-2-yl)acrylic Acid] | 10 ± 1 µM |  | 20.43 |  | 
8 | O=C(O)/C=C/c1cc(-c2ccc3c(c2)OCCO3)c(-c2ccc3c(c2)OCCO3)o1 [SMI-10B7, (E)-3-(4,5-Bis(2,3-dihydrobenzo[b][1,4]dioxin-6-yl)furan-2-yl)acrylic Acid] | 6.6 µM and 6.64 µM |  | 73.96 |  | 
9 | O=C(O)/C=C/c1cc(-c2ccccc2)c(-c2ccc3c(c2)OCO3)o1 [SMI-10B8, (E)-3-(5-(Benzo[d][1,3]dioxol-5-yl)-4-phenylfuran-2-yl)acrylic Acid] | 7.2 ± 0.8 µM |  | 81.66 | most effective | better at inhibiting pSTAT3, pAKT, pJNK, and pERK signaling
10 | O=C(O)/C=C/c1cc(-c2ccc3c(c2)OCO3)c(-c2ccccc2)o1 [SMI-10B9, (E)-3-(4-(Benzo[d][1,3]dioxol-5-yl)-5-phenylfuran-2-yl)acrylic Acid] | 18.2 ± 2 µM |  | 30.98 |  | 
11 | O=C(O)/C=C/c1cc(-c2ccccc2)c(-c2ccccc2)o1 [SMI-10B10, (E)-3-(4,5-Diphenylfuran-2-yl)acrylic Acid] | 20.7 ± 1.9 µM |  | 46.10 |  | 

Now from value to molecule, other results behind:

Row | Kd [1] | Structure (SMILES) | Relative pSTAT3 Levels (Table 1, SMI-10A-10J) [2] [%] | Relative pSTAT3 Levels (Table 2, SMI-10B analogs) [2] [%] | Inhibition of OSM-mediated signaling cascades by immunoblot (words) [3] | Inhibition of OSM-mediated signaling cascades by immunoblot (words) ([3]; listed as 10B8)
12 | 20.1 ± 1.5 µM | O=C(O)/C=C/c1ccc(-c2ccc3c(c2)OCO3)o1 [SMI-10B11, (E)-3-(5-(Benzo[d][1,3]dioxol-5-yl)furan-2-yl)acrylic Acid] |  | 42.43 |  | 
13 | 66.7 ± 5.8 µM | O=C(O)/C=C/c1cc(-c2ccc3c(c2)OCO3)co1 [SMI-10B12, (E)-3-(4-(Benzo[d][1,3]dioxol-5-yl)furan-2-yl)acrylic Acid] |  | 34.26 | most effective; also recorded: better at inhibiting pSTAT3, pAKT, pJNK, and pERK signaling | 
14 | 9.1 ± 1.5 µM | O=C(O)CCc1cc(-c2ccc3c(c2)OCO3)c(-c2ccc3c(c2)OCO3)o1 [SMI-10B14, 3-(4,5-Bis(benzo[d][1,3]dioxol-5-yl)furan-2-yl)propanoic Acid] |  | 79.65 | most effective; also recorded: better at inhibiting pSTAT3, pAKT, pJNK, and pERK signaling | 
15 | 8.9 ± 2 µM | O=C(O)CCc1cc(-c2ccc(F)c(F)c2)c(-c2ccc3c(c2)OCO3)o1 [SMI-10B15, 3-(5-(Benzo[d][1,3]dioxol-5-yl)-4-(3,4-difluorophenyl)furan-2-yl)propanoic Acid] |  | 75.05 |  | 
16 | 16.5 ± 5.2 µM | O=C(O)CCc1cc(-c2cncnc2)c(-c2ccc3c(c2)OCO3)o1 [SMI-10B16, 3-(5-(Benzo[d][1,3]dioxol-5-yl)-4-(pyrimidin-5-yl)furan-2-yl)propanoic Acid] |  | 41.62 |  | 
17 | 34.5 ± 6.9 µM | COc1ccc(-c2cc(CCC(=O)O)oc2-c2ccc3c(c2)OCO3)cc1 [SMI-10B17, 3-(5-(Benzo[d][1,3]dioxol-5-yl)-4-(4-methoxyphenyl)furan-2-yl)propanoic acid] |  | 86.51 |  | 
18 | 13.5 ± 2.5 µM | O=C(O)CCc1cc(-c2ccc(Cl)c(Cl)c2)c(-c2ccc3c(c2)OCO3)o1 [SMI-10B18, 3-(5-(Benzo[d][1,3]dioxol-5-yl)-4-(3,4-dichlorophenyl)furan-2-yl)propanoic Acid] |  | 35.00 |  | 
19 | > 200 µM | OCc1cc(-c2ccc3c(c2)OCO3)c(-c2ccc3c(c2)OCO3)o1 [SMI-10H, (4,5-Bis(benzo[d][1,3]dioxol-5-yl)furan-2-yl)methanol] | 61.1 |  |  | 
20 | 46.2 ± 7.2 µM | O=C(O)c1cc(-c2ccc3c(c2)OCO3)c(-c2ccc3c(c2)OCO3)o1 [SMI-10I, 4,5-Bis(benzo[d][1,3]dioxol-5-yl)furan-2-carboxylic Acid] | 45.9 |  |  | 
21 | 30.5 ± 2.1 µM | O=C(NCc1ccccc1)c1cc(-c2ccc3c(c2)OCO3)c(-c2ccc3c(c2)OCO3)o1 [SMI-10J, 4,5-Bis(benzo[d][1,3]dioxol-5-yl)-N-benzylfuran-2-carboxamide] | 8.6 |  | significant reductions, near nontreated levels | 
